SMILES strings stand for the structures.

In the test the target is T1, Androgen receptor (Rattus norvegicus, UniProt P15207).
T1 sequence (P15207 whole entry): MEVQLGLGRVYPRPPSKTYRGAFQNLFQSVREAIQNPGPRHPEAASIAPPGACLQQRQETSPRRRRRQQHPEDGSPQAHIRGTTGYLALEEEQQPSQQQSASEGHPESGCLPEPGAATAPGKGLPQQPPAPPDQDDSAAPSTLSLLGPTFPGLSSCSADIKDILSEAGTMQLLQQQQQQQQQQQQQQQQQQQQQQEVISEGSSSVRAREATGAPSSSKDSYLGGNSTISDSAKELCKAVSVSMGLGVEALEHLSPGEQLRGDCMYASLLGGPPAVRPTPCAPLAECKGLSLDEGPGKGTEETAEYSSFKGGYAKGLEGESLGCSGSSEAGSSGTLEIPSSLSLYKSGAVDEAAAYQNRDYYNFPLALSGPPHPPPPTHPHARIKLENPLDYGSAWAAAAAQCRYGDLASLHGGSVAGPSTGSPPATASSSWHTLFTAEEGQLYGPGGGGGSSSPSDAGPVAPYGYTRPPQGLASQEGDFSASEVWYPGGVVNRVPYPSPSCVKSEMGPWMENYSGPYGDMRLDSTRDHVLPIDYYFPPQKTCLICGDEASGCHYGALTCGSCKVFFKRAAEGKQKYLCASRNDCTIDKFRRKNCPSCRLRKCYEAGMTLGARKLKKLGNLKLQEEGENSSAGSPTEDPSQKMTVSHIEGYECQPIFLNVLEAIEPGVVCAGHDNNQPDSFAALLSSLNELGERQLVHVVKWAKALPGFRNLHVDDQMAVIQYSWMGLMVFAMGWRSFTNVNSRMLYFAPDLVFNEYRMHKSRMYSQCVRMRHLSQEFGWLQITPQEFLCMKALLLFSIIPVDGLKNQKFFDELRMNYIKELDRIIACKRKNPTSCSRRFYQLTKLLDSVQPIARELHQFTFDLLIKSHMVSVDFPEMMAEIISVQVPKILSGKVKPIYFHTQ
Briefly: The assay was performed as specified by the manufacturer (Invitrogen, Madison, Wis.). Briefly, 1 ul of 10 mM compound was added to 500 ul of AR screening buffer in a 1.5 ml eppendorf tube to make a 2x10E-5M stock. 10-fold serial dilutions of the test compounds were prepared ranging in concentration from 10E-5M to 10E-12M. Each dilution was added in triplicate to a black 384-microtiter plate. The test compounds will be diluted 2-fold in the final reaction. 2x AR-Fluormone complex was prepared with 2 nM Flourmone AL Green and 30 nM AR. 25 ul of 2x complex was aliquoted to each reaction well, such that the final reaction volume was 50 ul per well.
In the case of `Cc1c(N2C(=O)OC[C@@H]2[C@@H](O)C(F)(F)F)ccc(C#N)c1C(F)(F)F`, the IC50 is over 1000 nM.

In turn, `C[C@@H]1OC(=O)N(c2ccc(C#N)c(C(F)(F)F)c2)[C@H]1[C@@H](O)C(F)(F)F` yielded an IC50 of 72 nM. For `C[C@@H]1OC(=O)N(c2ccc(C#N)c(C(F)(F)F)c2)[C@H]1[C@H](O)C(F)(F)F`, 4 nM corresponded to half-maximal inhibition (IC50).

By IC50 is commonly meant the point on the concentration scale where inhibition reaches its midpoint. Read a high IC50 as a need for much substance.

The values are drawn from ChEMBL document CHEMBL3886248, “Selective androgen receptor modulators” (2015).
